Data taken from ChEMBL document CHEMBL1147799, “An integrated in silico 3D model-driven discovery of a novel, potent, and selective amidosulfonamide 5-HT1A agonist (PRX-00023) for the treatment of anxiety and depression” (J Med Chem, 2006).
Blank lines part the entries; values can stand above or below the molecule they belong to.

Columns and labels:
[1] = target: T1, Alpha-2A adrenergic receptor (Rattus norvegicus) (UniProt P22909); assay: Displacement of [3H]RX 821002 from Adrenergic alpha-2a receptor in rat cerebral cortex cells at 1 uM; assay type: cell-based
T1 sequence (whole entry): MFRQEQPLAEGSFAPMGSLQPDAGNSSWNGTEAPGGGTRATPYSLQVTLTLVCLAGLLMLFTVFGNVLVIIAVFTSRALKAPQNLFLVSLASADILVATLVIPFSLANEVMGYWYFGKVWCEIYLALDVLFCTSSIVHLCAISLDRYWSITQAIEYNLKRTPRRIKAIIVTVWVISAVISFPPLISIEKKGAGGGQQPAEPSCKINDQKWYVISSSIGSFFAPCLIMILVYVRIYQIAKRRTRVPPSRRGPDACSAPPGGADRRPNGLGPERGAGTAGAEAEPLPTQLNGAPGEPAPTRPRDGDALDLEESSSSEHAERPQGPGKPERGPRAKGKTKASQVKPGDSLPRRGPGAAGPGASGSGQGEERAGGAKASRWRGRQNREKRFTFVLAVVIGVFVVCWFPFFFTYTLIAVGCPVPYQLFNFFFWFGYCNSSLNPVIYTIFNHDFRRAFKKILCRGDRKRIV

[2] = target: T2, Adrenergic receptor alpha-1 (Rattus norvegicus) (UniProt P15823+P23944+P43140); assay: Displacement of [3H]prazosin from Adrenergic alpha-1 receptor in rat cerebral cortex cells at 1 uM; assay type: cell-based
[3] = target: T3, 5-hydroxytryptamine receptor 1A (Homo sapiens, UniProt P08908); assay: Displacement of [3H]8-OH-DPAT from human 5HT1A receptor in HEK293 cells
T3 sequence (P08908 whole entry): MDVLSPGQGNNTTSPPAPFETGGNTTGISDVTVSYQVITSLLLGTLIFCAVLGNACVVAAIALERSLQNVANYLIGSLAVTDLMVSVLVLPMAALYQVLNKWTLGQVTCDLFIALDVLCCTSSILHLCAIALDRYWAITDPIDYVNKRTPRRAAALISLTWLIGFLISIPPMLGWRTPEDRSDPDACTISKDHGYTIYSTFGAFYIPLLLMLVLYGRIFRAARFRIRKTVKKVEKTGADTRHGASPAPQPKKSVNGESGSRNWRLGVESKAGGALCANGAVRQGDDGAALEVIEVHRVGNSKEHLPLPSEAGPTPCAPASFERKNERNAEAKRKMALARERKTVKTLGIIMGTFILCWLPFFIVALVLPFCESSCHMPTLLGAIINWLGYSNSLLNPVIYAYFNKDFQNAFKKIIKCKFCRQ

[4] = Half life in Sprague-Dawley rat at 3 mg/kg, po; assay type: ADME, organism-based; parameters: dose 3 mg/kg, route oral; details: in vivo
[5] = Elimination half life in human; assay type: ADME, organism-based; details: in vivo
[6] = target: T4, 5-hydroxytryptamine receptor 1A (Homo sapiens) (UniProt P08908); assay: Activity against 5HT1A receptor relative to 5-HT by Gi-[35S]GTP-gamma-S binding assay; assay type: functional
T4 sequence (whole entry): T3 sequence (P08908 whole entry)

[7] = target: D(2) dopamine receptor (Homo sapiens, UniProt P14416); assay: Binding affinity to D2 receptor by radioligand binding assay
[8] = Cmax in Beagle dog at 3 mg/kg, po; assay type: ADME, organism-based, Canis lupus familiaris; parameters: dose 3 mg/kg, route oral; details: in vivo
[9] = Half life in Beagle dog at 3 mg/kg, po; assay type: ADME, organism-based, Canis lupus familiaris; parameters: dose 3 mg/kg, route oral; details: in vivo
[10] = Cmax in Sprague-Dawley rat at 3 mg/kg, po; assay type: ADME, organism-based; parameters: dose 3 mg/kg, route oral; details: in vivo
[11] = Toxicity in po dosed Beagle dog; assay type: organism-based, Canis lupus familiaris; details: in vivo
[12] = Toxicity in po dosed Sprague-Dawley rat; assay type: organism-based; details: in vivo
[13] = target: T3, 5-hydroxytryptamine receptor 1A; assay: Activity against 5HT1A receptor by Gi-[35S]GTP-gamma-S binding assay; assay type: functional
[14] = target: T2, Adrenergic receptor alpha-1 (Rattus norvegicus); assay: Displacement of [3H]prazosin from Adrenergic alpha-1 receptor in rat cerebral cortex cells at 1 uM
[15] = target: hERG (KCNH2) (Homo sapiens, UniProt Q12809); assay: Inhibition of hERG potassium channel in HEK293 cells by patch clamp assay at 1 uM; details: HEK293 cells that express hERG
[16] = target: Voltage-gated inwardly rectifying potassium channel KCNH2 (Homo sapiens, UniProt Q12809); assay: Inhibition of hERG potassium channel in HEK293 cells by patch clamp assay
[17] = Half life in human liver microsome at 5 uM; assay type: ADME; details: liver microsomes
[18] = Half life in human liver S9 fraction at 5 uM; assay type: ADME

T2 sequence (P15823 whole entry, looked up): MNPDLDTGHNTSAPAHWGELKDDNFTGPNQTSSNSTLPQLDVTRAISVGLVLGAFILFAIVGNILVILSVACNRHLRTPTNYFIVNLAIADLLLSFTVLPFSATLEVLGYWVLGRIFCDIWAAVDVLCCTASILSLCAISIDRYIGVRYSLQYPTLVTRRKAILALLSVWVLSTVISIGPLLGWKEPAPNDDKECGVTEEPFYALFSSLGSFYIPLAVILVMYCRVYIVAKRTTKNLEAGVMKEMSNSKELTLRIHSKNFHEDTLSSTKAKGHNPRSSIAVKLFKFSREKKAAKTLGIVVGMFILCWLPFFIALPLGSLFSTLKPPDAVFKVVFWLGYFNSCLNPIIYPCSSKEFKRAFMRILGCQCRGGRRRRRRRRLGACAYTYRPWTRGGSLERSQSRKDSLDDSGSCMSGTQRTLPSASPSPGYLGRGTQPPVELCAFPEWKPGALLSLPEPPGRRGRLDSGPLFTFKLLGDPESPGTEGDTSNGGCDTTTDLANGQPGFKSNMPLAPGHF
T2 sequence (P23944 whole entry, looked up): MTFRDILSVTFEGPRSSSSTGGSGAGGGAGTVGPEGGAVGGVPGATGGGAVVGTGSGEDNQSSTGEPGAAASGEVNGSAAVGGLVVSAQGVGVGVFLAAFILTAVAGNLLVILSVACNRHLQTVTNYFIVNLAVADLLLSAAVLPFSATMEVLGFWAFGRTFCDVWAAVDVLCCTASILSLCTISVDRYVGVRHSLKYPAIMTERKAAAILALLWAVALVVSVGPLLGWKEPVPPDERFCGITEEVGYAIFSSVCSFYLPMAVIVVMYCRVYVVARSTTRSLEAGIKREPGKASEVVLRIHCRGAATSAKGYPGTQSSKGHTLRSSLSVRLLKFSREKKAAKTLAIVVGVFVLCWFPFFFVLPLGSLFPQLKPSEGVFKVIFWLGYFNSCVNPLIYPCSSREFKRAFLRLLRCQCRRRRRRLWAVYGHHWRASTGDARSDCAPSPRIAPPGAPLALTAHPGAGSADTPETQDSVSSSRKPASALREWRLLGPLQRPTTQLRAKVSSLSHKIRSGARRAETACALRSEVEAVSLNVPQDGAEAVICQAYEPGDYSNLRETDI
T2 sequence (P43140 whole entry, looked up): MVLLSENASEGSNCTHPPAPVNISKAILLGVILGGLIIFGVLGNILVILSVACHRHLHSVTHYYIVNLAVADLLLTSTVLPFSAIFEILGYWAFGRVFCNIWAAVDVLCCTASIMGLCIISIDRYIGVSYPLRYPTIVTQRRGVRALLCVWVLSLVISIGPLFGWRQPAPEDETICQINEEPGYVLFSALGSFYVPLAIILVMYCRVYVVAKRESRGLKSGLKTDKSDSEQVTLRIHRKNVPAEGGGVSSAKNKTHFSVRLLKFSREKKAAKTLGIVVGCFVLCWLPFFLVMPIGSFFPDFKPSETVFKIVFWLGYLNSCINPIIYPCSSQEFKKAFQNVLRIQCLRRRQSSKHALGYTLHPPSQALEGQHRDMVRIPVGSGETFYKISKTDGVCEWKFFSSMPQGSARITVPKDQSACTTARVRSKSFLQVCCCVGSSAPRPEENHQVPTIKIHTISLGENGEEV
Sequence of D(2) dopamine receptor (P14416 whole entry): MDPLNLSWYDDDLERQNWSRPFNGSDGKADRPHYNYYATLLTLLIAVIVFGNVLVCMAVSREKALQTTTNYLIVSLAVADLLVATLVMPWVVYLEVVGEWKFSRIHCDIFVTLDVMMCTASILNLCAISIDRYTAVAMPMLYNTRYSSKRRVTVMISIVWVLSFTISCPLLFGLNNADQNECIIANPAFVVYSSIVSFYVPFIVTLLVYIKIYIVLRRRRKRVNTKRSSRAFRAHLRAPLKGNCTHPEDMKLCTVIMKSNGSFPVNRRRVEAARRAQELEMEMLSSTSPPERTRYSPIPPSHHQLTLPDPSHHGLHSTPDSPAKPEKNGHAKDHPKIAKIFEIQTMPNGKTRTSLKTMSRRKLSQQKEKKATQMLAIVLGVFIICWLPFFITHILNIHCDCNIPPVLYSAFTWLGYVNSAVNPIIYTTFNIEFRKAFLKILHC
Sequence of Voltage-gated inwardly rectifying potassium channel KCNH2 (Q12809 whole entry): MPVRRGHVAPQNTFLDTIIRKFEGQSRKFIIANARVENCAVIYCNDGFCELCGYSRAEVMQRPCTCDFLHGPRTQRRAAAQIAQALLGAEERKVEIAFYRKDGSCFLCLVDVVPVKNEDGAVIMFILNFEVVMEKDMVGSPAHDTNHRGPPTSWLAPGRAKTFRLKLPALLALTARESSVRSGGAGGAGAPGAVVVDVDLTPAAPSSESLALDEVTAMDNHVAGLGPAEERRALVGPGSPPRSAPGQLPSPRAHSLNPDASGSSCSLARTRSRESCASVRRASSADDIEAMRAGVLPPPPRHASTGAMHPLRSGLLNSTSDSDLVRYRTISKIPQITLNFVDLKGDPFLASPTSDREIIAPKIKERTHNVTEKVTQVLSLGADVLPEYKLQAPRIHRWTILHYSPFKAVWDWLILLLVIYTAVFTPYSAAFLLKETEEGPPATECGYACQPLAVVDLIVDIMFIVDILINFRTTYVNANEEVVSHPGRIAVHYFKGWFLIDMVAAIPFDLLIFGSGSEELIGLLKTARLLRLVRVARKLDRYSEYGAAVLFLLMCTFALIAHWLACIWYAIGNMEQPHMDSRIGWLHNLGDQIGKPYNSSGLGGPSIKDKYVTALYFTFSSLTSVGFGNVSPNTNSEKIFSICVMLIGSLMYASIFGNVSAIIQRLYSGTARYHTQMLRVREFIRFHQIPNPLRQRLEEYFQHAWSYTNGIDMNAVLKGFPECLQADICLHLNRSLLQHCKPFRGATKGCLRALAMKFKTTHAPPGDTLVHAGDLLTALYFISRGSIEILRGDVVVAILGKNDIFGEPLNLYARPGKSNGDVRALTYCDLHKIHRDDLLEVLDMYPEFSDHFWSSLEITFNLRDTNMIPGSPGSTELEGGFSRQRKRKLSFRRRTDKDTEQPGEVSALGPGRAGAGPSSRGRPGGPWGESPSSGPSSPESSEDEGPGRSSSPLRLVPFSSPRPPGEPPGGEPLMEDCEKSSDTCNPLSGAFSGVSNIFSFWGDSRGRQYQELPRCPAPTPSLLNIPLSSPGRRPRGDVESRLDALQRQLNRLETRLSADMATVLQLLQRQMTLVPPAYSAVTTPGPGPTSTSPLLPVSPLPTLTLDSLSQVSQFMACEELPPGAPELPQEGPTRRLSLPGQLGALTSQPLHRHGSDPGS
Sequence of hERG (KCNH2) (Q12809 whole entry): as above

Activity [1]: < 10%
Activity [2]: 10%
SMILES: O=C(Nc1cccc(N2CCN(CCCCNS(=O)(=O)CC3CCCCC3)CC2)c1)C1CC1

Activity [1]: < 10%
Activity [2]: < 10%
SMILES: CC(=O)Nc1cccc(N2CCN(CCCCNS(=O)(=O)C3CCCCC3)CC2)c1

Activity [1]: 12%
Activity [2]: 12%
SMILES: CCCC(=O)Nc1cccc(N2CCN(CCCCNS(=O)(=O)c3ccc(C)cc3)CC2)c1

Activity [1]: < 10%
Ki [3]: 78 nM
Activity [2]: 15%
SMILES: Cc1ccc(S(=O)(=O)NCCCCN2CCN(c3cccc(NC(=O)C(C)C)c3)CC2)cc1

half-life [4]: 0.75 h
Activity [1]: 13%
Activity [2]: < 10%
SMILES: CC(=O)Nc1cccc(N2CCN(CC3CCN(S(=O)(=O)CC4CCCCC4)CC3)CC2)c1

half-life [5]: 6 h
Activity [6]: 80%
Ki [7]: 58 nM
SMILES: CC1(C)CC(=O)N(CCCCN2CCN(c3ncccn3)CC2)C(=O)C1 [GEPIRONE]

Activity [1]: 11%
Activity [2]: 0%
SMILES: Cc1ccc(S(=O)(=O)NCCCCN2CCN(c3cccc(NC(=O)C(C)(C)C)c3)CC2)cc1

SMILES: O=C1CC2(CCCC2)CC(=O)N1CCCCN1CCN(c2ncccn2)CC1 [BUSPIRONE]
Cmax [8]: 146 ng/mL
half-life [5]: 2 h
Activity [6]: 50%
half-life [9]: 1 h
Cmax [10]: 4 ng/mL
half-life [4]: 1 h
LD50 [11]: 586 mg/kg
LD50 [12]: 196 mg/kg

EC50 [13]: 32 nM
Activity [14]: 27%
Activity [1]: 16%
Ki [3]: 9.7 nM
half-life at 5 µM [17]: > 0.75 h
Activity [2]: 27%
SMILES: CC(=O)Nc1cccc(N2CCN(CCCCN(C)S(=O)(=O)CC(C)C)CC2)c1
inhibition at 1 µM [15]: 31%
IC50 [16]: 2200 nM

Activity [1]: < 10%
Activity [2]: 39%
SMILES: CC(=O)Nc1cccc(N2CCN(CCCCNS(=O)(=O)c3ccc(F)cc3)CC2)c1

EC50 [13]: 3.6 nM
Activity [14]: 37%
half-life at 5 µM [18]: 1.08 h
Activity [1]: 47%
half-life at 5 µM [17]: 0.2 h
Activity [2]: 37%
SMILES: CC(=O)Nc1cccc(N2CCN(CCCCN(C)S(=O)(=O)CC3CCCCC3)CC2)c1

Activity [1]: 90%
Activity [2]: 98%
SMILES: Cc1ccc(S(=O)(=O)NCCCCN2CCN(c3ccccc3)CC2)cc1
